As usually defined, the IC50 is the concentration that gives 50% inhibition. Low readings indicate higher potency, high ones lower potency.

Results on 15 compounds are retold here after ChEMBL document CHEMBL5505977, “Discovery of novel pyrrolo[2,3-d]pyrimidines as potent menin-mixed lineage leukemia interaction inhibitors” (Eur J Med Chem, 2024).

The subject of one data set is Pfeiffer. The data set can be described thus: Antiproliferative activity against human Pfeiffer cells incubated for 72 hrs by MTT assay. The format is functional, cell-based. In general terms: Tetrazolium assays rely on reduction of a dye to a coloured formazan, in cell work by metabolically active cells.
The subject of another data set is MCF7. The data set can be described thus: Antiproliferative activity against human MCF7 cells incubated for 72 hrs by MTT assay. Conditions: MCF7, 72 h. The format is functional, cell-based.
The subject of a further data set is HL-60. The data set can be described thus: Antiproliferative activity against human HL-60 cells incubated for 72 hrs by MTT assay. In kind it is functional, cell-based. The settings on record: HL-60, 72 h.
The test system of another data set is Raji. The data set can be described thus: Antiproliferative activity against human Raji cells incubated for 72 hrs by MTT assay. In kind it is functional, cell-based.
The test system of the next data set is SU-DHL-6. The data set can be described thus: Antiproliferative activity against human SU-DHL-6 cells incubated for 72 hrs by MTT assay. The format is functional, cell-based. The settings on record: SU-DHL-6, 72 h.
Data set [1] can be described thus: Antiproliferative activity against human NCM460 cells incubated for 72 hrs by MTT assay. In kind it is toxicity, cell-based.
The next data set concerns Ramos. The data set can be described thus: Antiproliferative activity against human Ramos cells incubated for 72 hrs by MTT assay. In kind it is functional, cell-based.
Data set [2] has as its system MV4-11. The data set can be described thus: cells. The settings on record: Homo sapiens, MV4-11, 72 h.
Description: Antiproliferative activity against human MV4-11 cells incubated for 72 hrs by MTT assay
The subject of another data set is HCT-116. The data set can be described thus: Antiproliferative activity against human HCT-116 cells incubated for 72 hrs by MTT assay. The settings on record: HCT-116, 72 h. In kind it is functional, cell-based.
Another data set addresses T1, Menin (Homo sapiens, UniProt O00255).
T1 sequence (O00255 whole entry): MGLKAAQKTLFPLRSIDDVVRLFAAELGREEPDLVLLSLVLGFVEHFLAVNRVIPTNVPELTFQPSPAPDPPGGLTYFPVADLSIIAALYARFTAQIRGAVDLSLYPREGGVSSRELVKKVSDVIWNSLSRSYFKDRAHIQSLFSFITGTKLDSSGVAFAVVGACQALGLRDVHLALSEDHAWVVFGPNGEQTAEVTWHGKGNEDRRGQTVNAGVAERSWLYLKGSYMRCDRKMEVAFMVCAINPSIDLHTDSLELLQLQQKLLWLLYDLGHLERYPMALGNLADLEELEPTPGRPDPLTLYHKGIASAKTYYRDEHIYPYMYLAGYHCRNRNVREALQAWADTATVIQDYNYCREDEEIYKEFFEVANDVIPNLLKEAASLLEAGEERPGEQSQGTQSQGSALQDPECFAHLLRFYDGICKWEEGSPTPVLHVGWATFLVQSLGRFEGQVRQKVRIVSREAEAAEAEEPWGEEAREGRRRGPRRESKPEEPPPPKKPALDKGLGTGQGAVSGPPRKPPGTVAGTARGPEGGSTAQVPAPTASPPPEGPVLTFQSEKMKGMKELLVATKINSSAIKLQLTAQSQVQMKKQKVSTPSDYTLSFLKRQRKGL
The data set can be described thus: Binding affinity to menin (unknown origin) incubated for 1 hr by fluorescence polarization assay.

Data set [3] concerns MV4-11. The data set can be described thus: Effect on cell differentiation in human MV4-11 cells assessed as decrease in HOXA9 expression level at 5 uM by qPCR analysis. The format is functional, cell-based. The settings on record: time 24-48 hrs, TDE = time-dependent effect. (In qPCR the cycle at which signal appears reflects the starting amount.)
The subject of data set [4] is MV4-11. The data set can be described thus: Effect on cell differentiation in human MV4-11 cells assessed as assessed as increase in CD11b protein expression at M2-1 at 10 uM incubated for 7 days by flow cytometry analysis (reference value: 86.12%). The format is functional. Conditions: time 7 day.
Data set [5] relates to MV4-11. The data set can be described thus: Effect on cell differentiation in human MV4-11 cells assessed as assessed as increase in CD11b protein expression at M2-2 at 1 uM incubated for 7 days by flow cytometry analysis (reference value: 13.86%). The format is functional. The settings on record: time 7 day.
The subject of data set [6] is MV4-11. The data set can be described thus: Effect on cell differentiation in human MV4-11 cells assessed as assessed as increase in CD11b protein expression at M2-2 at 10 uM incubated for 7 days by flow cytometry analysis (reference value: 13.86%). The format is functional. Conditions: time 7 day.
Data set [7] has as its system MV4-11. The data set can be described thus: Induction of apoptosis in human MV4-11 cells assessed as necrotic cells at 10 uM incubated for 24 hrs by FITC Annexin-V/PI staining based flow cytometry analysis (reference value: 0.04%). In kind it is functional. On the technique in general: A flow cytometer gives signals particle by particle.
For data set [8], the system named is MV4-11. The data set can be described thus: Induction of apoptosis in human MV4-11 cells assessed as early apoptotic cells at 10 uM incubated for 24 hrs by FITC Annexin-V/PI staining based flow cytometry analysis (reference value: 2.68%). In kind it is functional.
For data set [9], the system named is MV4-11. The data set can be described thus: Induction of apoptosis in human MV4-11 cells assessed as necrotic cells at 1 uM incubated for 24 hrs by FITC Annexin-V/PI staining based flow cytometry analysis (reference value: 0.04%). In kind it is functional.
In data set [10] the test system is MV4-11. The data set can be described thus: Induction of apoptosis in human MV4-11 cells assessed as late apoptotic cells at 10 uM incubated for 24 hrs by FITC Annexin-V/PI staining based flow cytometry analysis (reference value: 3%). In kind it is functional.
Data set [11] relates to MV4-11. The data set can be described thus: Effect on cell differentiation in human MV4-11 cells assessed as assessed as increase in CD11b protein expression at M2-1 at 1 uM incubated for 7 days by flow cytometry analysis (reference value: 86.12%). The format is functional. The settings on record: time 7 day.
Data set [12] deals with MV4-11. The data set can be described thus: Effect on cell differentiation in human MV4-11 cells assessed as decrease in MEIS1 expression level at 5 uM by qPCR analysis. The format is functional, cell-based. Conditions: time 24-48 hrs, TDE = time-dependent effect.
The subject of data set [13] is MV4-11. The data set can be described thus: Induction of cell cycle arrest in human MV4-11 cells assessed as accumulation of cells at G0/G1 phase at 10 uM incubated for 24 hrs by PI/RNase staining based flow cytometry analysis. The format is functional.
Data set [14] concerns MV4-11. The data set can be described thus: Induction of apoptosis in human MV4-11 cells assessed as viable cells at 1 uM incubated for 24 hrs by FITC Annexin-V/PI staining based flow cytometry analysis (reference value: 94.27%). In kind it is functional. The settings on record: read-out: Activity.
Data set [15] deals with MV4-11. The data set can be described thus: Induction of apoptosis in human MV4-11 cells assessed as late apoptotic cells at 1 uM incubated for 24 hrs by FITC Annexin-V/PI staining based flow cytometry analysis (reference value: 3%). The format is functional.
Data set [16] concerns MV4-11. The data set can be described thus: Effect on cell differentiation in human MV4-11 cells assessed as decrease in HOXA9 expression level incubated for 48 hrs by qPCR analysis. In kind it is functional, cell-based.
Data set [17] has as its system MV4-11. The data set can be described thus: Induction of apoptosis in human MV4-11 cells assessed as early apoptotic cells at 1 uM incubated for 24 hrs by FITC Annexin-V/PI staining based flow cytometry analysis (reference value: 2.68%). The format is functional.
Data set [18] deals with MV4-11. The data set can be described thus: Induction of apoptosis in human MV4-11 cells assessed as viable cells at 10 uM incubated for 24 hrs by FITC Annexin-V/PI staining based flow cytometry analysis (reference value: 94.27%). In kind it is functional. The settings on record: read-out: Activity.
In data set [19] the test system is MV4-11. The data set can be described thus: Effect on cell differentiation in human MV4-11 cells assessed as decrease in MEIS1 expression level incubated for 48 hrs by qPCR analysis. In kind it is functional, cell-based.

Structures are written as SMILES. Activity calls are given as the source filed them. The rule behind the calls is not given here.

Take `CC[C@H](Nc1ncnc2[nH]cnc12)c1nc2cccc(F)c2c(=O)n1-c1ccccc1` [IDELALISIB]: the half-maximal inhibitory concentration (IC50) in the data set on Pfeiffer is above 10 µM; with MCF7, above 10 µM; with HL-60 it was above 10 µM; in the data set with Raji, above 10 µM; with SU-DHL-6, 0.1 µM; in the data set on Ramos, above 10 µM. The IC50 in the data set on MV4-11 [2] and in the data set with HCT-116 was above 10 µM throughout. In addition, the half-maximal inhibitory concentration (IC50) at 72 h in data set [1] is above 10 µM.
On to `N#Cc1ccc(N2CC(CN3CCC(n4ccc5c(N)ncnc54)CC3)C2)cc1`, for which the IC50 was above 10 µM in the data set with HL-60, 1.47 µM on Menin and 5.2 µM with MV4-11 [2].
Turning to `Nc1ncnc2c1c(-c1ccc(F)cc1)cn2C1CCN(CC2CN(c3ccc(S(=O)(=O)C4CCCC4)cc3)C2)CC1`, the IC50 in the data set with HL-60 was above 10 µM; at Menin, 1.04 µM; in the data set with MV4-11 [2] it was 1.94 µM.
Consider `CCS(=O)(=O)c1ccc(N2CC(CN3CCC(n4cc(-c5ccc(F)cc5)c5c(N)ncnc54)CC3)C2)cc1`, for which the results for the half-maximal inhibitory concentration (IC50) with HL-60, on Menin and in the data set on MV4-11 [2] were above 10 µM, 0.45 µM and 1.29 µM, respectively.
With `N#Cc1ccc(N2CC(CN3CCC(n4ccc5c(Cl)ncnc54)CC3)C2)cc1`, the half-inhibitory concentration (IC50) in the data set with HL-60 was above 10 µM; on Menin it was above 10 µM; with MV4-11 [2], 6.54 µM.
Consider `Nc1ncnc2c1c(-c1ccc(F)cc1)cn2C1CCN(CC2CN(c3ccc(S(=O)(=O)C4CC4)cc3)C2)CC1`, for which the IC50 in the data set on HL-60 was determined as 7.5 µM; at Menin, 0.47 µM; in the data set with MV4-11 [2], 1.26 µM.
For `Nc1ncnc2c1c(-c1ccc(F)cc1)cn2C1CCN(CC2CN(c3ccc(S(=O)(=O)C4CCC4)cc3)C2)CC1` the same measures were 8.8 µM, 0.53 µM and 1.69 µM.
For `Nc1ncnc2c1c(-c1ccc(F)cc1)cn2C1CCN(CC2CN(c3ccc(S(=O)(=O)C4CCCCC4)cc3)C2)CC1` the same measures were above 10 µM, 0.25 µM and 2 µM.
Regarding `N#Cc1ccc(N2CC(CN3CCC(n4ccc5cncnc54)CC3)C2)cc1`, the IC50 with HL-60, at Menin and with MV4-11 [2] was above 10 µM in each case.
Take `CC(C)(C)OC(=O)N1CC(S(=O)(=O)c2ccc(N3CC(CN4CCC(n5cc(-c6ccc(F)cc6)c6c(N)ncnc65)CC4)C3)cc2)C1`: the figures for the half-inhibitory concentration (IC50) in the data set with HL-60, at Menin and in the data set with MV4-11 [2] were above 10 µM, 1.14 µM and 1.35 µM, respectively.
For the compound `CCCc1cc2c(N3CCN(C4=NCC(C)(C)S4)CC3)ncnc2s1`, the Activity entry in the data set on MV4-11 [3] was “Tde”; with MV4-11 [4], 47.84%; in the data set with MV4-11 [5], 21%; in the data set on MV4-11 [6], 52.13%; in the data set with MV4-11 [7], 0.19%; in the data set on MV4-11 [8] it was 13.22%. The Activity with MV4-11 [9] was 0.09%; in the data set on MV4-11 [10] it was 18.52%; in the data set on MV4-11 [11] it was 79%; in the data set on MV4-11 [12], “Tde”; in the data set on MV4-11 [15], 3.02%; in the data set on MV4-11 [16], “Dose-Dependent Effect”. In addition, the Activity in the data set with MV4-11 [17] is 3.12%; in the data set on MV4-11 [19] it was “Dose-Dependent Effect”. In addition, the outcome in the data set on MV4-11 [13] was Active. This compound also gave an IC50 with HL-60 above 10 µM. The viability at 1 µM with MV4-11 [14] was 93.8%. Also, the viability at 10 µM in the data set with MV4-11 [18] amounted to 68%.
`CN1CCN(c2ncnc3c2ccn3C2CCN(CC3CN(c4ccc(C#N)cc4)C3)CC2)CC1`: the IC50 in the data set with HL-60, on Menin and in the data set on MV4-11 [2] was above 10 µM in each case.
For `CS(=O)(=O)c1ccc(N2CC(CN3CCC(n4cc(-c5ccc(F)cc5)c5c(N)ncnc54)CC3)C2)cc1`, the IC50 in the data set with HL-60 is above 10 µM; at Menin it was 0.73 µM; in the data set with MV4-11 [2], 2.05 µM.
For `CN(C)CCOc1ncnc2c1ccn2C1CCN(CC2CN(c3ccc(C#N)cc3)C2)CC1` the same measures were above 10 µM, above 10 µM and above 10 µM.
For `Nc1ncnc2c1c(-c1ccc(F)cc1)cn2C1CCN(CC2CN(c3ccc(S(=O)(=O)c4ccncc4)cc3)C2)CC1` the same measures were above 10 µM, 1.22 µM and above 10 µM.
